Test results reported in patent US10233201B2, “Class of HDAC inhibitors expands the renal progenitor cells population and improves the rate of recovery from acute kidney injury” (University of Pittsburgh—Of the Commonwealth System of …, priority 2012, dated 2019).
“And” between values parts separate entries of the source, which are not always exact repeats. Equal entries are not always repeated. “Also recorded” adds a separate entry of the source.

Tests used:
[1] = system: kidney field (cad17:EGFP); assay: Image-based high-content screen, Tg(cad17:EGFP) embryos, CNT analysis; format: in vivo, zebrafish; conditions: 4 individual values (n=4)
Description: Initial studies, above, used a phenotypic marker of the ability to expand the renal progenitor cell field in larval zebrafish, and identified the first member of a novel class of HDAC inhibitors, PTBA as well as a few structural and functional analogs. These findings form the basis for further study. However, this technology is limited as it is dependent on subjective interpretation of a subtle phenotypic change in the fish. Therefore, in order to develop a more objective and higher content screen, we developed an image-based high-content screen using transgenic zebrafish (Vogt A, et al. Automated image-based phenotypic analysis in zebrafish embryos. Dev Dyn. 2009; 238(3):656-63). […] Tg(Cad17:EGFP) zebrafish is a transgenic line that was prepared by isolation of an approximately 5 kb (5066 bp) promoter element and approximately 3 kb (3221 bp) first intron element from the cadherin 17 locus, cloning it into a plasmid along with the enhanced GFP open reading frame and injecting if into zebrafish embryos to established transgenic lines using the meganuclease transgenesis method (Soroldoni et al., Simple and efficient transgenesis with meganuclease constructs in zebrafish, Methods Mol Bio 2009; 546: 117-30.). […]
For all second-generation compounds, the cad17:EGFP transgene is used as the primary readout to assay for expansion of kidney field (FIG. 35). […]

[2] = system: mouse models of unilateral ureteral obstruction (UUO); assay: Unilateral ureteral obstruction (UUO); format: in vivo
Description: The model of unilateral ureteral obstruction generates progressive renal fibrosis. Surgically created UUO can be experimentally manipulated with respect to timing, severity, and duration, while reversal of the obstruction permits the study of recovery.
FIG. 47 represents the results of the testing of compounds UPHD-00022, UPHD-00025 (PTBA), UPHD-00029, UPHD-00036, and UPHD-00186, for their efficacy in mouse models of unilateral ureteral obstruction (UUO) as follows: in the UUO models, one ureter was ligated for 7 days and compounds were delivered via IP for days 0 to 6. At day 7 kidneys were harvested for Sirius red staining. […] Therefore, in the models tested, the only compound proven to be effective in all models and with significant delayed onset of treatment is UPHD-186.

[3] = system: BALB/c mice, severe IR-AKI; assay: Severe ischemia-reperfusion AKI (IR-AKI); format: in vivo, mouse
Protocol: Surgeries were performed on a water-bath heated platform at 38° C. on 10-12 week old male BALB/c mice. For moderate IR-AKI, mice underwent a right nephrectomy followed by left renal pedicle clamping (800 μm pressure clamp, FST 18052-03). The clamp was released after 26 minutes, and tissue reperfusion was confirmed before completing the surgery. Mice were treated daily with indicated doses of compounds or equivalent volume of 20% 2-hydroxypropyl-β-cyclodextrin in water as vehicle control starting 24 h after injury. Since initial injury with this model is variable, mice were randomly allocated vehicle or m4PTB treatment if their serum creatinine levels were 0.8 to 1.2 mg/dl 24 h post IR injury. Other mice were excluded from further analysis and euthanized. To induce severe IR-AKI, mice underwent left renal pedicle clamping for 30 minutes and delayed contralateral nephrectomy was performed after 8 days.
For mouse studies, kidney sections were stained using Periodic Acid-Schiff (PAS) to assess renal tubular injury. Tubular injury (casts, dilated tubules, epithelial cell blebbing, and vacuolization, loss of brush borders or nuclei) was scored as described. Sirius red staining was performed using an established protocol used to evaluate renal fibrosis/collagen accumulation in kidney sections. To quantify Sirius red staining we used an Olympus BX-41 microscope equipped with an Olympus DP-72 digital camera system and polarizing light filter. Results are expressed as the mean percent fibrosis for all of the images per slide region (Sirius red positive/total surface area).
We used of 2-hydroxypropyl-β-cyclodextrin (CD, Sigma), a low toxicity drug formulation vehicle that has been well characterized and used extensively as a hydrophobic drug delivery vehicle. We could achieve concentrations of up to ˜12 mg/ml of PTBA analogues in 20% CD in water (100 mg/kg in volumes of ˜150-250 μl), and daily IP injections with 200 μl 20% CD in water had no effect on renal functional recovery following IR-AKI. Therefore all studies were performed using compounds dissolved in 20% CD. To assess dosing and biological activity of PTBA analogues in mice, CD1 mice were injected with varying doses of compounds IP and kidneys isolated at different time point for histone extraction and analysis of histone H4 acetylation, a marker of HDAC inhibitor activity, as outlined below. Based on results of these studies, mice were treated daily with 1, 10, 50 or 100 mg/kg of compound or equivalent volume of 20% CD vehicle control starting 24 h after injury.
˜30 μl blood was obtained by tail vein bleed at different time points, and serum samples frozen after confirming that they had not undergone hemolysis (which interferes with enzymatic analysis for serum creatinine). Serum creatinine was evaluated in duplicate samples using a commercially available enzymatic cascade assay (Pointe Scientific, requires only ˜7 μl of serum). […] Blood Urea Nitrogen (BUN) was determined in duplicate samples using a colorimetric enzymatic assay kit (Infinity Urea, Thermo Scientific), and spot urinary albumin/creatinine ratios determined using a mouse albumin ELISA and urinary creatinine assay kit (Albuwell and Creatinine Companion, Exocell).
Compounds 22, 25, 29, 36, and 186 were injected for 7 days at […] starting 24 hrs after severe IR treatment. […] Fibrotic (scar) tissue was measured using Sirus Red after 28 days for various markers of fibrosis.

[4] = system: zebrafish larvae; assay: Phenotypic scoring of edema and survival in zebrafish larvae at 72 hpf; format: in vivo
Description: (§1) PTBA was synthesized as described below. Hydroxyurea and aphidicolin were obtained from Sigma-Aldrich.
Wild type: no visible edema or developmental delay.

[5] = system: renal progenitor cells (lhx1a expression); assay: In situ hybridization for lhx1a expression in 10-somite embryos (renal progenitor cell expansion); format: in vivo
Protocol: as §1
(§2) In situ hybridization and immunocytochemistry: In situ hybridization was performed as previously described with some modifications. 142 Hybridization temperature was 65° C. Embryos were blocked in 2% blocking reagent (Roche) with 5% sheep serum in MAB (100 mM maleic acid and 150 mM NaCl [pH 7.5]). Whole-mount immunocytochemistry with 1:25 mouse anti-α6F antibody (Developmental Studies Hybridoma Bank) and 1:100 Cy3 secondary antibody (Jackson ImmunoResearch) was performed as described previously. 108 Embryos were embedded in JB-4 for sectioning per the manufacturer's instructions (Polysciences), sectioned at 5 μm, and mounted with Cytoseal 60 (Richard-Allan Scientific).
The remaining PTBA analogs were synthesized.
In situ hybridization for lhx1a was performed as described above. […] Compounds were classified as effective, partially-effective or ineffective based on comparison to the effects of PTBA at a given concentration.
Testing of the compounds is on-going, but for those tested, Table 3 provides first pass EC50s based upon colormetric in situ hybridizations for the Lhx1a mRNA expression levels. After the procedure is run, in situ hybridization is done for the lhx1 mRNA expression and the number of embryos that show an expanded kidney field is manually counted to establish the percent of embryos showing expansion. Then the EC50 is determined by plotting the percent expansion in Excel, graphing the results and using the trendline function to determine the 50 percent point. […] For UPHD-00186, the 4 values for EC50 are shown in Table 3 for the corresponding expression in zebrafish embryos employed an artificial intelligence-based image analysis method termed cognition network technology (CNT) for n=4.

[6] = system: histone H4 acetylation; assay: Histone H4 hyperacetylation Western blot in embryos; format: in vivo, zebrafish; conditions: 24 hpf embryos treated 6 hours; 3 μM PTBA, 25 μM PBA, 200 nM TSA
Protocol: It was next determined whether the HDACi function of PTBA was quantifiable in vivo. 24 hpf embryos were treated with 3 μM PTBA, 25 μM PBA, or 200 nM TSA for 6 hours. Protein extracts were prepared and immunoblotted with an anti-hyperacetylated histone H4 antibody. […] Furthermore, increasing the compound concentration caused a corresponding increase in hyperacetylation (FIG. 21).
SDS-PAGE and Western blotting were performed as described previously with some modifications (Noel, E. S. et al. Organ-specific requirements for Hdac1 in liver and pancreas formation. Dev Biol 322, 237-250, (2008)). Proteins were separated on 18% SDS-PAGE gels. Membranes were incubated at 4° C. overnight with 1:1000 anti-hyperacetylated histone H4 antibody (06-946, Millipore) or 1:1000 anti-α-tubulin antibody (Sigma-Aldrich) in PBT containing 5% nonfat milk.

[7] = system: human HDACs (HeLa cell nuclear extract); assay: Fluorescence histone deacetylation assay with HeLa cell nuclear extract; format: biochemical; conditions: 1 μM TSA, all input levels of nuclear extract
Protocol: To evaluate this in vitro, the deacetylation of a fluorescent peptide substrate was measured in the presence of human HDACs.
In vitro HDAC activity assays were performed using a fluorescence HDAC assay kit (Active Motif) according to the manufacturer's instructions. For maintaining compound solubility at 5 mM, the final DMSO concentration in all assay wells was increased to 5%. Fluorescence was detected using an M5 Plate Reader ([…])

[8] = system: myod1 (somites), fli1a (vasculature), ntla (notochord); assay: In situ hybridization for mesodermal markers myod1, fli1a, ntla in 10-somite embryos; format: in vivo, zebrafish
Protocol: as §1, §2

[9] = cited from earlier work
[10] = 7 days at 50 mg/ml starting 24 hrs after severe IR

O=C(CCCSc1ccccc1)Nc1ccccc1O [UPHD-00186, N-(2-hydroxyphenyl)-4-(phenylsulfanyl) butanamide]
EC50 [1]: 649 nM and 810 nM and 818 nM | EC50 ([1]; Danio rerio): 587 nM | fibrosis (Sirius red) and expression of fibrosis markers in UUO kidney ([2]; IP days 0 to 6, kidneys harvested at day 7): reduce both fibrosis and expression of fibrosis markers | prevention of post injury fibrosis in UUO compared with Vorinostat (SAHA) ([2]; mouse, in vivo): more effective than the FDA approved HDACi drug Vorinostat (SAHA) | fibrosis after 28 days (Sirus Red, markers of fibrosis) [3, 10]: most reduction in fibrosis | serum creatinine at day 9 [3, 10]: better activity | effect of timing of treatment in severe IR-AKI ([3]; FIG. 46): has still a significant effect on IR-AKI after more than 7 days | post injury fibrosis with delayed treatment ([3]; treatment 3 days after IR-AKI, FIG. 48): still markedly reduces post injury fibrosis | reduction in post injury fibrosis at various dosages ([3]; various dosages, FIG. 45): efficient at elevated doses

CC(/C=C/C(=O)NO)=C\[C@@H](C)C(=O)c1ccc(N(C)C)cc1 [TSA, trichostatin A]
treated 72 hpf larvae killed ([4]; 300 nM): greater than 90% | larval phenotype in phenotypic screen of analogs ([4]; 3 μM, 2 to 72 hpf): generated edemic and/or lethal phenotypes | death (lethality) by 72 hpf ([4]; 25 μM PBA, 200 nM TSA, n=90): 61% | larvae with edemic phenotype / pericardial edema at 72 hpf ([4]; treated from 2 hpf, 3 μM PTBA, 25 μM PBA, 200 nM TSA): 100% | embryos with expanded lhx1a expression (% expansion) ([5]; 100 nM): 97% | lhx1a expansion class, 100 nM ([5]; 100 nM from 2 hpf): + | embryos with expanded lhx1a expression (% expansion) ([5]; 200 nM): 100% | lhx1a expansion class, 200 nM ([5]; 200 nM from 2 hpf): + | lethality before the 10-somite stage ([5]; 400 nM): died before reaching 10 somites | lethality before the 10-somite stage ([5]; 800 nM): lethal | lethality before the 10-somite stage ([5]; 1.5 μM): lethal | lethality before the 10-somite stage ([5]; 3 μM): killed all treated embryos | concentration producing lhx1a expansion consistent with 3 μM PTBA ([5]; 10-somite embryos): 200 nM | histone H4 hyperacetylation [6]: hyperacetylation was observed | effect on HDAC activity [7]: completely blocked activity; also recorded: inhibit all HDAC activity | embryos with disrupted normal ntla expression ([8]; 200 nM): 86% | embryos with decreased myod1 expression ([8]; 3 μM PTBA (slightly decreased), 25 μM PBA, 200 nM TSA): 100% | embryos with decreased fli1a expression ([8]; 25 μM PBA, 200 nM TSA): 95%

O=C(O)CCCc1ccccc1 [Buphenyl]
half-life (t1/2) ([9]; following administration): ~1 h | bioavailability ([9]; taken orally): about 80%
